In paper PMC8637440, “Structural Modifications Yield Novel Insights Into the Intriguing Pharmacodynamic Potential of Anti-inflammatory Nitro-Fatty Acids” (Frontiers in Pharmacology, 2021):

What was measured:
[1] = molecular target: T1, 12-LO (Homo sapiens, UniProt P18054); assay: 12-HETE formation in intact PMNL, A23187 in absence of AA; type: cell-based; settings: read-out: PMNL (w/o AA) 12-HETE IC50
T1 construct: endogenous in cells; host or cells: platelet impurities in human PMNL preparations
T1 sequence (P18054 1-663): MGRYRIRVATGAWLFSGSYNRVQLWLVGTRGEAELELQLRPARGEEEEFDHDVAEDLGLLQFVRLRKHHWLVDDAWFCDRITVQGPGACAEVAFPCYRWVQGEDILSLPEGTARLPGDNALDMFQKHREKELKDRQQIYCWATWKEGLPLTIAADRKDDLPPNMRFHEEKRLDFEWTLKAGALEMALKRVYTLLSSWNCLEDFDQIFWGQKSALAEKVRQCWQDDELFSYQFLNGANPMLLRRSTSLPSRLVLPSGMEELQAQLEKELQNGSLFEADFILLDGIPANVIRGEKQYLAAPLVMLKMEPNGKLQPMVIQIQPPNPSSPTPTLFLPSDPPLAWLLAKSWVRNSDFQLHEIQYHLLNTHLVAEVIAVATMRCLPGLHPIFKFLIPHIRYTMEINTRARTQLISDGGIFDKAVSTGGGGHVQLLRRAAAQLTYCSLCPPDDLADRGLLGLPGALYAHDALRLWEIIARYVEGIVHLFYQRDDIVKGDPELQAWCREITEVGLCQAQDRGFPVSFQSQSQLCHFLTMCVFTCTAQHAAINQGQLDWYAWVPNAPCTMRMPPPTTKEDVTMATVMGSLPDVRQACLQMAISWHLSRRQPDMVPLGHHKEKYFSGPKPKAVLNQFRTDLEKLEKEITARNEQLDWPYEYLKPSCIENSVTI

[2] = molecular target: T2, sEH (Homo sapiens, UniProt P34913); assay: Cell-based sEH activity assay in HepG2 cells; set-up: endogenous in cells; host or cells: HepG2; settings: for inhibition of sEH activity in HepG2 cells: 10 µM, 24 h
T2 sequence (P34913 1-555): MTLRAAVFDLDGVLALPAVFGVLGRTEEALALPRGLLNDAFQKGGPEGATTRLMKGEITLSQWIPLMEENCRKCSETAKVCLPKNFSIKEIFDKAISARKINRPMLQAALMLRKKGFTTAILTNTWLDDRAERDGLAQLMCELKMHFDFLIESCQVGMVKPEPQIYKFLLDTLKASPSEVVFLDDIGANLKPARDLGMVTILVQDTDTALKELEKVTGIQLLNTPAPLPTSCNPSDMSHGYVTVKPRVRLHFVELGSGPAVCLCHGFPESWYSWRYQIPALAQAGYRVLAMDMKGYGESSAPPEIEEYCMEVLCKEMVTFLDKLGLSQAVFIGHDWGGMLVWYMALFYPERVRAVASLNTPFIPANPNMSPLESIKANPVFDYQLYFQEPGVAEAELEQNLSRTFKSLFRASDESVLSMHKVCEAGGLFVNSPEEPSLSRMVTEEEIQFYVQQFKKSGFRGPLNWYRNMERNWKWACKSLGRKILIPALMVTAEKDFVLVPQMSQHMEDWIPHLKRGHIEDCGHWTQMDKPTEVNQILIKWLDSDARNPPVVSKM
Description: sEH activity in the cells was analyzed using a Soluble Epoxide Hydrolase Cell-Based Assay Kit (Cayman Chemical, #600090). […] Following incubation, the cells were processed according to the manufacturer’s instructions. The assay uses an internal signal subtraction to minimize potential errors generated by sEH-independent product formation due esterase mediated hydrolysis. The fluorescence intensity of the samples was measured in a plate reader at excitation/emission wavelengths of 330/465 nm sEH activity was calculated by the 6-methoxy-2-naphthaldehyde standard curve.
FIGURE 3 Effects of NFA on sEH activity. […] Data are the mean ± SEM of n = 3–7. […] The cells were lysed, and hydrolase activity was measured by Epoxy Fluor 7 lysis. […] Statistical significance was calculated by one-way ANOVA with Bonferroni post-test and multiple comparisons against the DMSO control.

Row | Structure (SMILES) | IC50 [1] [µM] | inhibition of sEH activity in HepG2 cells [2] | inhibition at 10 µM ([2]; HepG2, 24 h) [%]
1 | CCCCCCCCC=C(CCCCCCCC(=O)O)[N+](=O)[O-] [18.9.9, 9-nitro-octadec-9-enoic acid] | 6.26 ± 0.823 |  | 
2 | CCCCCCCCC(=CCCCCCCCC(=O)O)[N+](=O)[O-] [18.9.10, 10-nitro-octadec-9-enoic acid] |  | most efficient enzyme inhibition | 
3 | CCCCCCCC=C(CCCCCCCCC(=O)O)[N+](=O)[O-] [18.10.10, 10-nitro-octadec-10-enoic acid] |  | most efficient enzyme inhibition | 
4 | CCCCCCC=C(CCCCCCCCCC(=O)O)[N+](=O)[O-] [18.11.11, 11-nitro-octadec-11-enoic acid] |  | most efficient enzyme inhibition | 
5 | CCCCCCCCCCC=C(CCCCCCCC(=O)O)[N+](=O)[O-] [20.9.9, 9-nitro-eicos-9-enoic acid] | 15.5 ± 0.74 |  | 
6 | CCCCCCCC/C=C\CCCCCCCC(=O)O [OA, oleic acid, reference compound] |  | strong suppressive effect | > 50
